{"source": "patent US8895717B2", "about": "“Delivery of siRNA by neutral lipid compositions” (The Board of Regents of the University of Texas System, priority 2005, dated 2014)", "key": {"[1]": {"test_system": "A2780 and RMG-II cells", "assay": "Intracellular cAMP in βAR negative cell lines", "assay_type": "cell-based, human"}, "[2]": {"test_system": "VEGF mRNA", "assay": "VEGF mRNA expression, real-time RT-PCR", "assay_type": "cell-based, human", "method": "Total RNA was extracted (Trizol reagent; Invitrogen Co, Carlsbad, Calif.) and reverse transcribed using an oligo(dT) primer and M-MLV reverse transcriptase (Life Technologies, Inc., Rockville, Md.) in a final reaction volume of 20 μl (60 min at 42° C.). PCR amplifications are performed using the ABI Prism 7700 Sequence Detection System with TaqMan One-Step RT-PCR Master Mix Reagent kit (PE Applied Biosystems, Foster City, Calif.). Quantitative values are obtained from the Ct value, at which the increase in fluorescent signal associated with exponential growth of PCR products starts to be detected by the laser detector of the Sequence Detection System, using the analysis software according to the manufacturer's instructions (each sample is normalized on the basis of its I8S content). The VEGF primers were obtained from Applied Biosystems (Item number HS00173626-ml). βAR expression was examined with semi-quantitative RT-PCR using the following primers: βAR (forward, 5′-[…]-3′ (SEQ ID NO:13), reverse, 5′-[…]-3′) (SEQ ID NO:14); β2AR (forward, 5′-[…]-3′ (SEQ ID NO:15), reverse, 5′-[…]-3′) (SEQ ID NO:16)."}, "[3]": {"test_system": "HeyA8 tumor samples", "assay": "Mean vessel density (CD31) in HeyA8 tumor samples", "assay_type": "in vivo, nude mice", "conditions": "daily agonist treatment", "method": "Paraffin sections were stained for CD31 (1:800 dilution, Pharmingen, San Jose, Calif.), MMP-2 (1:500 dilution, Chemicon, Temecula, Calif.), MMP-9 (1:200 dilution, Calbiochem, San Diego, Calif.), VEGF (1:500 dilution, Santa Cruz Biotechnology, Santa Cruz, Calif.) and bFGF (1:1,000 dilution, Sigma, St. Louis, Mo.) at 4° C. Samples were stained with a biotinylated goat anti-rabbit antibody for 30 min (prediluted), followed by strepavidin horseradish peroxidase for 30 min (1:300 dilution), and visualized in 3,3′-diaminobenzidine (DAB) for 5-10 min.\nTo quantify MVD, 10 random 0.159 mm^2 fields at 100× magnification were examined for each tumor, and the microvessels within those fields were counted. A single microvessel was defined as a discrete cluster of cells stained CD31(+), and the presence of a lumen was required for scoring as a microvessel."}, "[4]": {"test_system": "HeyA8 cells", "assay": "Daily β-agonist treatment of mice bearing HeyA8 ovarian cancer cells", "assay_type": "in vivo, nude mice", "conditions": "10 mg/kg daily", "source_text": "Mice habituated to vivarium conditions for 1 week before the initiation of stress procedures. A restraint-stress procedure was used based on previous studies (Sheridan et al., 1991), substituting a novel Mouse Restraint System (FIG. 15A) for conical centrifuge tubes. In this system, up to 10 mice are placed in individual slots, and each slot can be adjusted to restrain the animal for a desired length of time. In the present study, restraint stress began between 8 a.m. and 10 a.m., and lasted for 2-6 hours for up to 21 days. The ovarian cancer cell lines were harvested from subconfluent cultures by a brief exposure to 0.25% trypsin and 0.02% EDTA, resuspended in Hank's balanced salt solution (HBSS), and tested for >95% viability by trypan blue dye exclusion. The HeyA8 cells were injected i.p. into mice at a concentration of 2.5×10^5 cells while the other cell lines were injected at 1.0×10^6 cells per 0.2 ml HBSS, ten days after starting stress in all groups. Animals were necropsied 21 days after tumor injection, and tumors in the peritoneal cavity were excised, weighed, and documented for location. Immunohistochemistry and H&E staining procedures were carried out on formalin-fixed paraffin-embedded tumors.\nStarting 4 days after tumor cell injection, mice bearing HeyA8 ovarian cancer cells (n=10 per group) were treated daily with either 1) PBS; 2) isoproterenol (non-specific β-agonist) 10 mg/kg; 3) terbutaline (β2-agonist) 5 mg/kg; 4) xamoterol (β1-agonist) 1 mg/kg; or 5) isoproterenol plus 2 mg/kg of the non-specific β-antagonist propranolol."}, "[5]": {"test_system": "HeyA8 cells", "assay": "Cytotoxicity assay (MTT), HeyA8", "assay_type": "cell-based, human", "conditions": "Homo sapiens, HEY A8; HeyA8, 96 hours", "method": "(§1) The medium was exchanged after 48 hours with increasing concentrations of docetaxel (obtained from Aventis Pharma, Bridgewater, N.J.) dissolved in ethanol (final concentration range, 0.1-10,000 nmol/L prepared in medium) or cisplatin (purchased from LKT Laboratories, Inc., St. Paul, Minn.) dissolved in water. After a 96-hour incubation, 50 μL of 0.15% 3-(4,5-dimethylthiazol-2-yl)-2,5-diphenyltetrazolium bromide was added to each well and incubated for 2 hours. The supernatant was removed, and cells were dissolved in 100 μL DMSO. The absorbance at 570 nm was recorded using a FALCON microplate reader (Becton Dickinson Labware, Bedford, Mass.), and cell survival expressed as a percent increase or decrease above control conditions, after subtracting blank A570 readings. The IC50 concentration was determined by finding the A570 reading midpoint between maximal and minimal readings and finding the chemotherapy concentration that intersects the growth curve at that A570 reading."}, "[6]": {"test_system": "HeyA8 cells", "assay": "TUNEL apoptosis assay, HeyA8", "assay_type": "cell-based, human", "method": "(§2) Terminal deoxynucleotidyl transferase-mediated nick end labeling-positive cells were detected using Dead End Fluorometric terminal deoxynucleotidyl transferase-mediated nick end labeling system (APO-DIRECT, BD Biosciences/PharMingen, San Diego, Calif.) according to the manufacturer's instructions. […] Cells were fixed with 4% paraformaldehyde solution for 25 minutes on ice. Intracellular DNA fragments were then labeled by exposing cells to fluorescein-12-dUTP, treated with propidium iodide and RNaseA solution, and analyzed by flow cytometry (EPICS XL, Beckman Coulter, Miami, Fla.). The percentages of apoptotic cells were averaged over three consecutive experiments."}, "[7]": {"test_system": "SKOV3-TR cells", "assay": "Cytotoxicity assay (MTT), SKOV3-TR", "assay_type": "cell-based, human", "method": "as §1"}, "[8]": {"test_system": "SKOV3 cells", "assay": "Cytotoxicity assay (MTT), SKOV3", "assay_type": "cell-based, human", "conditions": "Homo sapiens, SK-OV-3; SKOV3, 96 hours", "method": "as §1"}, "[9]": {"test_system": "SKOV3-TR and HeyA8-MDR cells", "assay": "TUNEL apoptosis assay, taxane-resistant cells", "assay_type": "cell-based, human", "method": "Terminal deoxynucleotidyl transferase-mediated nick end labeling-positive cells were detected using Dead End Fluorometric terminal deoxynucleotidyl transferase-mediated nick end labeling system (APO-DIRECT, BD Biosciences/PharMingen, San Diego, Calif.) according to the manufacturer's instructions. Briefly, ovarian cancer cells in culture were treated with varying concentrations of docetaxel and harvested after 12, 24, 48, or 96 hours. Cells were fixed with 4% paraformaldehyde solution for 25 minutes on ice. Intracellular DNA fragments were then labeled by exposing cells to fluorescein-12-dUTP, treated with propidium iodide and RNaseA solution, and analyzed by flow cytometry (EPICS XL, Beckman Coulter, Miami, Fla.). The percentages of apoptotic cells were averaged over three consecutive experiments."}, "[10]": {"test_system": "caspase-3", "assay": "Caspase-3 activity in ovarian cancer cells (DEVD-AFC)", "assay_type": "cell-based, human", "conditions": "for increase in caspase-3 activity: 24 hours", "method": "Ovarian cancer cells (1×10^6) in culture (six-well plates) were treated with or without docetaxel at the cell line specific IC50 or IC90 concentration for 24 hours. After washing with PBS, cells were lysed in 50 μL of cell lysis buffer provided. Caspase-3, caspase-8, and caspase-9 activities were measured with the appropriate apoptosis detection kit (BD Biosciences/Clontech, Palo Alto, Calif.), using substrate DEVD-AFC for caspase-3, IETD-AFC for caspase-8, and LEHD-AMC for caspase-9."}, "[11]": {"test_system": "SKOV3 cells", "assay": "TUNEL apoptosis assay, SKOV3", "assay_type": "cell-based, human", "method": "as §2"}, "[12]": {"test_system": "FAK", "assay": "FAK cleavage in response to docetaxel, Western blot", "assay_type": "cell-based, human", "method": "Cells were lysed in modified RIPA buffer (50 mM Tris, 150 mM NaCl, 1% triton, 0.5% deoxycholate plus 25 µg/ml leupeptin, 10 µg/ml aprotinin, 2 mM EDTA, and 1 mM sodium orthovanadate (Sigma Chemical Co, St. Louis, Mo.) as previously described (Sood et al., 2004; Sood et al., 2002). A sample was removed from culture dishes by cell scraping and centrifuged at 12,500 rpm for 30 min. The […] protein concentration of the supernatant was determined using a bicinchoninic acid protein assay reagent kit (Pierce, Rockford, Ill.), and whole cell lysates were analyzed by 7.5% SDS-PAGE. Samples were then transferred to nitrocellulose membrane by semi-dry transfer (BioRad Laboratories, Hercules, Calif.). Membranes were blocked with 5% nonfat milk, and incubated with 0.25 μg/mL anti-FAK antibody (Biosource, International Camarillo, Calif.) for 1 h at room temperature. Antibody was detected with 0.167 μg/mL HRP-conjugated anti-mouse secondary antibody (The Jackson Laboratory, Bar Harbor, Me.) and developed with an enhanced chemiluminescence detection kit (Pierce). Equal loading was confirmed by detection of β-actin (0.1 μg/ml, anti-β-actin antibody, Sigma Chemical). Densitometric analysis was performed using the Scion Imaging software (Scion Corporation, Frederick, Md.).\nIt has been reported that FAK may be cleaved by caspase-3 (Gervais et al., 1998; Sasaki et al., 2002; Carragher et al., 2001). Based on observations regarding modulation of caspase levels by docetaxel in ovarian cancer cells, FAK cleavage after treatment with docetaxel was examined and whether there are differences in extent of FAK cleavage between the taxane-sensitive and taxane-resistant cell lines. In SKOV3 cells, FAK was cleaved after 48 and 72 hours of exposure to docetaxel (FIG. 7A). The 71-kDa fragments increased after treatment with docetaxel, whereas the 125-kDa fragments decreased. […] To study the dependence of FAK cleavage on caspase-3, the effect of DEVDfmk (caspase-3 inhibitor) was examined."}, "[13]": {"test_system": "HeyA8-MDR cells", "assay": "Cytotoxicity assay (MTT), HeyA8-MDR", "assay_type": "cell-based, human", "method": "as §1"}}, "data": [{"smiles": "NC[C@H](O)c1ccc(O)c(O)c1", "note": "[norepinephrine]", "values": [{"measurement": "intracellular cAMP levels after stimulation", "setting": "[1]", "value": "neither of the βAR negative cell lines showed an increase in intracellular cAMP levels"}, {"measurement": "increase in VEGF mRNA expression", "setting": "[2]; SKOV3ip1, peak 1.5 hours following treatment", "value": 8.4, "unit": "fold"}, {"measurement": "VEGF expression", "setting": "[2]; βAR-negative A2780 cells", "value": "no increase in VEGF expression"}]}, {"smiles": "CC(C)NCC(O)c1ccc(O)c(O)c1", "note": "(centres unmarked) [isoproterenol]", "values": [{"measurement": "intracellular cAMP levels after stimulation", "setting": "[1]", "value": "neither of the βAR negative cell lines showed an increase in intracellular cAMP levels"}, {"measurement": "MVD counts", "setting": "[3]", "value": "significantly higher MVD counts compared to controls"}, {"measurement": "increase in average tumor weight compared to control", "setting": "[4]", "value": 266, "unit": "%"}, {"measurement": "increase in mean number of tumor nodules compared to control", "setting": "[4]", "value": 341, "unit": "%"}, {"measurement": "effect on VEGF mRNA", "setting": "[2]; SKOV3ip1, forskolin 1 μM, db-cAMP 1 mM", "value": "mimicked"}]}, {"smiles": "CC(=O)O[C@@]12CO[C@@H]1C[C@H](O)[C@@]1(C)C(=O)[C@H](O)C3=C(C)[C@@H](OC(=O)[C@H](O)[C@@H](NC(=O)OC(C)(C)C)c4ccccc4)C[C@@](O)([C@@H](OC(=O)c4ccccc4)[C@H]21)C3(C)C", "note": "[docetaxel]", "values": [{"measurement": "IC50", "setting": "[5]", "value": 1, "unit": "nM"}, {"measurement": "apoptosis", "setting": "[6]; HeyA8, IC20 level of docetaxel, FAK siRNA 48 hours before", "value": "~42", "unit": "%"}, {"measurement": "proportion of apoptotic cells", "setting": "[6]; HeyA8, docetaxel 72 hours without or with DEVD-fmk", "value": 56, "unit": "%"}, {"measurement": "proportion of apoptotic cells", "setting": "[6]; HeyA8, docetaxel 96 hours", "value": 66, "unit": "%"}, {"measurement": "IC50", "setting": "[7]; Homo sapiens, SKOV3TR, SKOV3-TR, 96 hours", "value": 225, "unit": "nM"}, {"measurement": "fold more resistant to docetaxel", "setting": "[7]; SKOV3-TR versus SKOV3", "value": 36, "unit": "fold"}, {"measurement": "IC50", "setting": "[8]", "value": 6.2, "unit": "nM"}, {"measurement": "apoptosis", "setting": "[9]; FAK siRNA with or without docetaxel", "value": "neither agent alone induced much apoptosis"}, {"measurement": "level of apoptosis", "setting": "[9]; docetaxel with or without DEVD-fmk", "value": "remained low"}, {"measurement": "increase in caspase-3 activity", "setting": "[10]; HeyA8, IC50 level of docetaxel", "value": 1.8, "unit": "fold"}, {"measurement": "increase in caspase-3 activity", "setting": "[10]; HeyA8, IC90 level of docetaxel", "value": 2.5, "unit": "fold"}, {"measurement": "increase in caspase-3 activity", "setting": "[10]; SKOV3, IC50 level of docetaxel", "value": 2.8, "unit": "fold"}, {"measurement": "increase in caspase-3 activity", "setting": "[10]; SKOV3, IC90 level of docetaxel", "value": 5.4, "unit": "fold"}, {"measurement": "induction of caspase activity", "setting": "[10]; resistant SKOV3-TR and HeyA8-MDR, IC50 and IC90 levels for sensitive lines, caspase-3, -8, -9", "value": "not able to induce caspase activity"}, {"measurement": "apoptosis", "setting": "[11]; SKOV3, IC20 level of docetaxel, FAK siRNA 48 hours before", "value": "about 41%"}, {"measurement": "proportion of apoptotic cells", "setting": "[11]; SKOV3, docetaxel 72 hours without or with DEVD-fmk", "value": 72, "unit": "%"}, {"measurement": "proportion of apoptotic cells", "setting": "[11]; SKOV3, docetaxel 96 hours", "value": 84, "unit": "%"}, {"measurement": "FAK cleavage", "setting": "[12]; SKOV3, 48 and 72 hours", "value": "cleaved"}, {"measurement": "FAK cleavage", "setting": "[12]; SKOV3-TR and HeyA8-MDR", "value": "did not show any increase in FAK cleavage products"}, {"measurement": "fold more resistant to docetaxel", "setting": "[13]; HeyA8-MDR versus HeyA8", "value": 300, "unit": "fold"}, {"measurement": "IC50", "setting": "[13]; Homo sapiens, HeyA8-MDR, 96 hours", "value": 450, "unit": "nM"}]}]}
